# Experimental data published in USRE48461E1, “Modulation of androgen receptor expression” (Ionis Pharmaceuticals, Inc., priority 2012, dated 2021).
# Several values for one entry are separate records, joined by “and”; a condition that tells them apart may be missing. Equal entries are not always repeated. Oligonucleotides are written 5' to 3', each unit as a sugar letter and its base; * is a phosphorothioate linkage, no mark a phosphodiester; rarer units and linkages stand in square brackets, end groups in braces. Plain capitals give the bases only. e = 2'-O-(2-methoxyethyl) (MOE); k = constrained ethyl (cEt); [5mC] = 5-methylcytosine; d = 2'-deoxy (DNA)
# Assays:
# AR mRNA [1] = test: Dose-dependent antisense inhibition of human AR in HuVEC cells (electroporation, qRT-PCR RTS3559, IC50); assay type: cell-based; settings: HuVEC
# How it was run: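 HuVEC cells dosed with antisense oligonucleotides by electroporation and treated approximately 16 hours. AR mRNA quantified by real-time qPCR with primer probe set RTS3559 and normalised to total RNA by RIBOGREEN; IC50 from dose-response.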
# AR mRNA [2] = test: Antisense inhibition of human AR in HuVEC cells, single concentration (electroporation, qRT-PCR RTS3559); assay type: cell-based
# How it was run: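 HuVEC cells electroporated with antisense oligonucleotides at a single concentration. AR mRNA quantified by qRT-PCR using human primer-probe set RTS3559 and normalised to total RNA content by RIBOGREEN.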
# [3] = Table 33, electroporation, approximately 16 hours
# [4] = Table 20, 500 nM oligonucleotide, electroporation, approximately 24 hours, relative to untreated control
# [5] = Table 30, electroporation, approximately 16 hours
# [6] = Table 32, electroporation, approximately 16 hours
# [7] = Table 29, electroporation, approximately 16 hours
# [8] = Table 36, electroporation, approximately 16 hours
substance,measurement,setting,value
583868 (kA*k[5mC]*kT*d[5mC]*dA*dG*d[5mC]*dA*dG*dT*dA*dT*d[5mC]*kT*kT*k[5mC]; antisense) [compound 583868],"percent inhibition of AR, 46.9 nM",AR mRNA [1]; [3],19%
same,"percent inhibition of AR, 187.5 nM",AR mRNA [1]; [3],31%
same,"percent inhibition of AR, 750.0 nM",AR mRNA [1]; [3],59%
same,"percent inhibition of AR, 3000.0 nM",AR mRNA [1]; [3],81%
same,IC50,AR mRNA [1]; [3],410 nM
same,% inhibition,AR mRNA [2]; [4],34%
583728 (antisense kG*k[5mC]*kT*d[5mC]*dT*dG*dG*dA*dA*d[5mC]*dA*dG*dA*kT*kT*k[5mC]) [compound 583728],"percent inhibition of AR, 46.9 nM",AR mRNA [1]; [5],9%
same,"percent inhibition of AR, 187.5 nM",AR mRNA [1]; [5],48%
same,"percent inhibition of AR, 750.0 nM",AR mRNA [1]; [5],67%
same,"percent inhibition of AR, 3000.0 nM",AR mRNA [1]; [5],70%
same,IC50,AR mRNA [1]; [5],400 nM
same,% inhibition,"AR mRNA [2]; 500 nM ASO, ~24 h, Table 18",45%
569222 (antisense eT*eT*kG*kA*kT*dT*dT*dA*dA*dT*dG*dG*dT*kT*kG*k[5mC]) [compound 569222],percent inhibition of AR,"AR mRNA [1]; 31.25 nM, ~16 h, Table 8",36%
same,percent inhibition of AR,"AR mRNA [1]; 62.5 nM, ~16 h, Table 8",48%
same,percent inhibition of AR,"AR mRNA [1]; 125.0 nM, ~16 h, Table 8",67%
same,percent inhibition of AR,"AR mRNA [1]; 500.0 nM, ~16 h, Table 8",91%
same,percent inhibition of AR,"AR mRNA [1]; 1000.0 nM, ~16 h, Table 8",98%
same,IC50,"AR mRNA [1]; ~16 h, Table 8",60 nM
same,% inhibition,"AR mRNA [2]; 250 nM ASO, ~24 h, Table 7",74%
583864 (k[5mC]*kA*kG*dT*dG*d[5mC]*dT*d[5mC]*dT*dT*dG*d[5mC]*d[5mC]*kT*kG*k[5mC]; antisense) [compound 583864],"percent inhibition of AR, 187.5 nM","AR mRNA [1]; Table 32, electroporation, approximately 16 hours, 0.1875 µM",49% and 47%
same,"percent inhibition of AR, 750.0 nM","AR mRNA [1]; Table 32, electroporation, approximately 16 hours, 0.75 µM",72% and 62%
same,"percent inhibition of AR, 3000.0 nM",AR mRNA [1]; [6],85%
same,% inhibition,AR mRNA [2]; [4],46%
583880 (kT*kT*kT*dG*dG*dT*dG*dT*dA*dA*d[5mC]*d[5mC]*dT*k[5mC]*k[5mC]*k[5mC]; antisense) [compound 583880],"percent inhibition of AR, 46.9 nM",AR mRNA [1]; [6],13%
same,"percent inhibition of AR, 187.5 nM",AR mRNA [1]; [6],52%
same,"percent inhibition of AR, 750.0 nM",AR mRNA [1]; [6],78%
same,"percent inhibition of AR, 3000.0 nM",AR mRNA [1]; [6],92%
same,IC50,AR mRNA [1]; [6],220 nM
same,% inhibition,AR mRNA [2]; [4],39%
583567 (antisense kG*k[5mC]*kA*d[5mC]*dT*dT*dT*d[5mC]*d[5mC]*dT*dT*dG*d[5mC]*kT*kT*k[5mC]) [compound 583567],"percent inhibition of AR, 46.9 nM",AR mRNA [1]; [7],17%
same,"percent inhibition of AR, 187.5 nM",AR mRNA [1]; [7],34%
same,"percent inhibition of AR, 750.0 nM",AR mRNA [1]; [7],60%
same,"percent inhibition of AR, 3000.0 nM",AR mRNA [1]; [7],79%
same,IC50,AR mRNA [1]; [7],430 nM
same,% inhibition,"AR mRNA [2]; 500 nM ASO, ~24 h, Table 16",52%
583853 (kT*kG*k[5mC]*dA*dT*dT*d[5mC]*dG*dG*d[5mC]*d[5mC]*dA*dA*kT*kG*kG; antisense) [compound 583853],"percent inhibition of AR, 46.9 nM",AR mRNA [1]; [3],24%
same,"percent inhibition of AR, 187.5 nM",AR mRNA [1]; [3],51%
same,"percent inhibition of AR, 750.0 nM",AR mRNA [1]; [3],70%
same,"percent inhibition of AR, 3000.0 nM",AR mRNA [1]; [3],80%
same,IC50,AR mRNA [1]; [3],210 nM
same,% inhibition,AR mRNA [2]; [4],33%
584495 (kA*kT*kG*dG*dT*dT*dG*dT*d[5mC]*d[5mC]*dT*dG*dT*kA*k[5mC]*kA; antisense) [compound 584495],"percent inhibition of AR, 46.9 nM",AR mRNA [1]; [8],0%
same,"percent inhibition of AR, 187.5 nM",AR mRNA [1]; [8],14%
same,"percent inhibition of AR, 750.0 nM",AR mRNA [1]; [8],55%
same,"percent inhibition of AR, 3000.0 nM",AR mRNA [1]; [8],74%
same,IC50,AR mRNA [1]; [8],650 nM
same,% inhibition,"AR mRNA [2]; Table 27, 1,000 nM oligonucleotide, electroporation, approximately 24 hours, relative to untreated control",58%
same,% inhibition,"AR mRNA [2]; Table 28, 1,000 nM oligonucleotide, electroporation, approximately 24 hours, relative to untreated control",53%
569228 (antisense eT*eT*kG*kA*kT*dT*dT*dA*dA*dT*dG*dG*kT*kT*kG*e[5mC]) [compound 569228],percent inhibition of AR,"AR mRNA [1]; 31.25 nM, ~16 h, Table 8",26%
same,percent inhibition of AR,"AR mRNA [1]; 62.5 nM, ~16 h, Table 8",43%
same,percent inhibition of AR,"AR mRNA [1]; 62.5 nM, ~16 h, Table 10",29%
same,percent inhibition of AR,"AR mRNA [1]; 125.0 nM, ~16 h, Table 8",62%
same,percent inhibition of AR,"AR mRNA [1]; 125.0 nM, ~16 h, Table 10",44%
same,percent inhibition of AR,"AR mRNA [1]; 500.0 nM, ~16 h, Table 8",88%
same,percent inhibition of AR,"AR mRNA [1]; 500.0 nM, ~16 h, Table 10",77%
same,percent inhibition of AR,"AR mRNA [1]; 1000.0 nM, ~16 h, Table 8",92%
same,percent inhibition of AR,"AR mRNA [1]; 1000.0 nM, ~16 h, Table 10",87%
same,IC50,"AR mRNA [1]; ~16 h, Table 8",90 nM
same,IC50,"AR mRNA [1]; ~16 h, Table 10",158 nM
same,% inhibition,"AR mRNA [2]; 250 nM ASO, ~24 h, Table 7",67%
